Assay results: ChEMBL document CHEMBL1275522, “Antimicrobial studies with the Pseudomonas aeruginosa two-allele library require caution” (2008)
In brackets after ≈: the same amount, converted by molar mass.

How the values were obtained:
Type in all cases: functional
[1] = test system: Pseudomonas aeruginosa; experiment: Antimicrobial against Pseudomonas aeruginosa 9256 harboring ybhO allele by broth dilution method
[2] = test system: Pseudomonas aeruginosa; experiment: Antimicrobial against Pseudomonas aeruginosa PAO1 by broth dilution method
[3] = test system: Pseudomonas aeruginosa; experiment: Antimicrobial against Pseudomonas aeruginosa 3208 harboring phzM allele by broth dilution method
[4] = test system: Pseudomonas aeruginosa; experiment: Antimicrobial against Pseudomonas aeruginosa 40198 harboring nirJ allele by broth dilution method
[5] = test system: Pseudomonas aeruginosa; experiment: Antimicrobial against Pseudomonas aeruginosa 3434 by broth dilution method
[6] = test system: Pseudomonas aeruginosa; experiment: Antimicrobial against Pseudomonas aeruginosa 8666 by broth dilution method
[7] = test system: Pseudomonas aeruginosa; experiment: Antimicrobial against Pseudomonas aeruginosa 46396 harboring katA allele by broth dilution method
[8] = test system: Pseudomonas aeruginosa; experiment: Antimicrobial against Pseudomonas aeruginosa 33410 harboring phoU allele by broth dilution method
[9] = test system: Pseudomonas aeruginosa; experiment: Antimicrobial against Pseudomonas aeruginosa 30848 harboring phoU allele by broth dilution method
[10] = test system: Pseudomonas aeruginosa; experiment: Antimicrobial against Pseudomonas aeruginosa 8564 harboring pyrX allele by broth dilution method
[11] = test system: Pseudomonas aeruginosa; experiment: Antimicrobial against Pseudomonas aeruginosa 312 harboring PBPP allele by broth dilution method
[12] = test system: Pseudomonas aeruginosa; experiment: Antimicrobial against Pseudomonas aeruginosa 1494 harboring phnA allele by broth dilution method
[13] = test system: Pseudomonas aeruginosa; experiment: Antimicrobial against Pseudomonas aeruginosa 3894 by broth dilution method
[14] = test system: Pseudomonas aeruginosa; experiment: Antimicrobial against Pseudomonas aeruginosa 32455 harboring phzS allele by broth dilution method
[15] = test system: Pseudomonas aeruginosa; experiment: Antimicrobial against Pseudomonas aeruginosa 3465 harboring tsaA allele by broth dilution method
[16] = test system: Pseudomonas aeruginosa; experiment: Antimicrobial against Pseudomonas aeruginosa 8666 by Etest method
[17] = test system: Pseudomonas aeruginosa; experiment: Antimicrobial against Pseudomonas aeruginosa 46396 harboring katA allele by Etest method
[18] = test system: Pseudomonas aeruginosa; experiment: Antimicrobial against Pseudomonas aeruginosa 3465 harboring tsaA allele by Etest method
[19] = test system: Pseudomonas aeruginosa; experiment: Antimicrobial against Pseudomonas aeruginosa PAO1 by Etest method
[20] = test system: Pseudomonas aeruginosa; experiment: Antimicrobial against Pseudomonas aeruginosa 3894 by Etest method
[21] = test system: Pseudomonas aeruginosa; experiment: Antimicrobial against Pseudomonas aeruginosa 30848 harboring phoU allele by Etest method
[22] = test system: Pseudomonas aeruginosa; experiment: Antimicrobial against Pseudomonas aeruginosa 3208 harboring phzM allele by Etest method
[23] = test system: Pseudomonas aeruginosa; experiment: Antimicrobial against Pseudomonas aeruginosa 9256 harboring ybhO allele by Etest method
[24] = test system: Pseudomonas aeruginosa; experiment: Antimicrobial against Pseudomonas aeruginosa 40198 harboring nirJ allele by Etest method
[25] = test system: Pseudomonas aeruginosa; experiment: Antimicrobial against Pseudomonas aeruginosa 33410 harboring phoU allele by Etest method
[26] = test system: Pseudomonas aeruginosa; experiment: Antimicrobial against Pseudomonas aeruginosa 32455 harboring phzS allele by Etest method
[27] = test system: Pseudomonas aeruginosa; experiment: Antimicrobial against Pseudomonas aeruginosa 3434 by Etest method
[28] = test system: Pseudomonas aeruginosa; experiment: Antimicrobial against Pseudomonas aeruginosa 312 harboring PBPP allele by Etest method
[29] = test system: Pseudomonas aeruginosa; experiment: Antimicrobial against Pseudomonas aeruginosa 8564 harboring pyrX allele by Etest method
[30] = test system: Pseudomonas aeruginosa; experiment: Antimicrobial against Pseudomonas aeruginosa 1494 harboring phnA allele by Etest method

Compound: O=C(O)c1cn(C2CC2)c2cc(N3CCNCC3)c(F)cc2c1=O [CIPROFLOXACIN]
- MIC [1]: 0.1 µg/mL (≈ 0.302 µM)
- MIC [2]: 0.8 µg/mL (≈ 2.41 µM)
- MIC [3]: 0.1 µg/mL (≈ 0.302 µM)
- MIC [4]: 0.1 µg/mL (≈ 0.302 µM)
- MIC [5]: 0.05 µg/mL (≈ 0.151 µM)
- MIC [6]: 0.1 µg/mL (≈ 0.302 µM)
- MIC [7]: 0.1 µg/mL (≈ 0.302 µM)
- MIC [8]: 0.05 µg/mL (≈ 0.151 µM)
- MIC [9]: 0.2 µg/mL (≈ 0.604 µM)
- MIC [10]: 0.1 µg/mL (≈ 0.302 µM)
- MIC [11]: 0.1 µg/mL (≈ 0.302 µM)
- MIC [12]: 0.1 µg/mL (≈ 0.302 µM)
- MIC [13]: 0.05 µg/mL (≈ 0.151 µM)
- MIC [14]: 0.1 µg/mL (≈ 0.302 µM)
- MIC [15]: 0.1 µg/mL (≈ 0.302 µM)

Compound: NC[C@H]1O[C@H](O[C@H]2[C@H](O)[C@@H](O[C@H]3O[C@H](CO)[C@@H](O)[C@H](N)[C@H]3O)[C@H](N)C[C@@H]2N)[C@H](N)C[C@@H]1O [TOBRAMYCIN]
- MIC [1]: 0.4 µg/mL (≈ 0.856 µM)
- MIC [2]: 0.2 µg/mL (≈ 0.428 µM)
- MIC [3]: 0.2 µg/mL (≈ 0.428 µM)
- MIC [4]: 0.4 µg/mL (≈ 0.856 µM)
- MIC [5]: 0.4 µg/mL (≈ 0.856 µM)
- MIC [6]: 0.2 µg/mL (≈ 0.428 µM)
- MIC [7]: 0.2 µg/mL (≈ 0.428 µM)
- MIC [8]: 0.4 µg/mL (≈ 0.856 µM)
- MIC [9]: 0.4 µg/mL (≈ 0.856 µM)
- MIC [10]: 0.2 µg/mL (≈ 0.428 µM)
- MIC [11]: 0.2 µg/mL (≈ 0.428 µM)
- MIC [12]: 0.4 µg/mL (≈ 0.856 µM)
- MIC [13]: 0.4 µg/mL (≈ 0.856 µM)
- MIC [14]: 0.4 µg/mL (≈ 0.856 µM)
- MIC [15]: 0.2 µg/mL (≈ 0.428 µM)

Compound: O=C(N[C@H](CO)[C@H](O)c1ccc([N+](=O)[O-])cc1)C(Cl)Cl [CHLORAMPHENICOL]
- MIC [1]: 12.5 µg/mL (≈ 38.7 µM)
- MIC [2]: 800 µg/mL (≈ 2480 µM)
- MIC [3]: 12.5 µg/mL (≈ 38.7 µM)
- MIC [4]: 12.5 µg/mL (≈ 38.7 µM)
- MIC [5]: 25 µg/mL (≈ 77.4 µM)
- MIC [6]: 12.5 µg/mL (≈ 38.7 µM)
- MIC [7]: 12.5 µg/mL (≈ 38.7 µM)
- MIC [8]: 12.5 µg/mL (≈ 38.7 µM)
- MIC [9]: 200 µg/mL (≈ 619 µM)
- MIC [10]: 12.5 µg/mL (≈ 38.7 µM)
- MIC [11]: 12.5 µg/mL (≈ 38.7 µM)
- MIC [12]: 12.5 µg/mL (≈ 38.7 µM)
- MIC [13]: 12.5 µg/mL (≈ 38.7 µM)
- MIC [14]: 12.5 µg/mL (≈ 38.7 µM)
- MIC [15]: 12.5 µg/mL (≈ 38.7 µM)

Compound: C[C@@H](O)[C@H]1C(=O)N2C(C(=O)O)=C(S[C@@H]3CN[C@H](C(=O)N(C)C)C3)[C@H](C)[C@H]12 [MEROPENEM]
- MIC [16]: 0.25 µg/mL (≈ 0.652 µM)
- MIC [17]: 0.25 µg/mL (≈ 0.652 µM)
- MIC [18]: 0.25 µg/mL (≈ 0.652 µM)
- MIC [19]: 0.38 µg/mL (≈ 0.991 µM)
- MIC [20]: 0.19 µg/mL (≈ 0.495 µM)
- MIC [21]: 0.5 µg/mL (≈ 1.3 µM)
- MIC [22]: 0.38 µg/mL (≈ 0.991 µM)
- MIC [23]: 0.25 µg/mL (≈ 0.652 µM)
- MIC [24]: 0.25 µg/mL (≈ 0.652 µM)
- MIC [25]: 0.38 µg/mL (≈ 0.991 µM)
- MIC [26]: 0.25 µg/mL (≈ 0.652 µM)
- MIC [27]: 0.38 µg/mL (≈ 0.991 µM)
- MIC [28]: 0.25 µg/mL (≈ 0.652 µM)
- MIC [29]: 0.38 µg/mL (≈ 0.991 µM)
- MIC [30]: 0.38 µg/mL (≈ 0.991 µM)

Compound: CC(C)(O/N=C(\C(=O)N[C@@H]1C(=O)N2C(C(=O)[O-])=C(C[n+]3ccccc3)CS[C@H]12)c1csc(N)n1)C(=O)O [CEFTAZIDIME]
- MIC [16]: 2 µg/mL (≈ 3.66 µM)
- MIC [17]: 2 µg/mL (≈ 3.66 µM)
- MIC [18]: 2 µg/mL (≈ 3.66 µM)
- MIC [19]: 2 µg/mL (≈ 3.66 µM)
- MIC [20]: 2.5 µg/mL (≈ 4.57 µM)
- MIC [21]: 3 µg/mL (≈ 5.49 µM)
- MIC [22]: 2 µg/mL (≈ 3.66 µM)
- MIC [23]: 2 µg/mL (≈ 3.66 µM)
- MIC [24]: 1.5 µg/mL (≈ 2.74 µM)
- MIC [25]: 1.5 µg/mL (≈ 2.74 µM)
- MIC [26]: 2 µg/mL (≈ 3.66 µM)
- MIC [27]: 2.5 µg/mL (≈ 4.57 µM)
- MIC [28]: 2 µg/mL (≈ 3.66 µM)
- MIC [29]: 1.5 µg/mL (≈ 2.74 µM)
- MIC [30]: 1.5 µg/mL (≈ 2.74 µM)

Compound: CCn1cc(C(=O)O)c(=O)c2cc3c(cc21)OCO3 [OXOLINIC ACID]
- MIC [1]: 8 µg/mL (≈ 30.6 µM)
- MIC [2]: 64 µg/mL (≈ 245 µM)
- MIC [3]: 4 µg/mL (≈ 15.3 µM)
- MIC [4]: 8 µg/mL (≈ 30.6 µM)
- MIC [5]: 4 µg/mL (≈ 15.3 µM)
- MIC [6]: 8 µg/mL (≈ 30.6 µM)
- MIC [7]: 8 µg/mL (≈ 30.6 µM)
- MIC [8]: 4 µg/mL (≈ 15.3 µM)
- MIC [9]: 16 µg/mL (≈ 61.2 µM)
- MIC [10]: 8 µg/mL (≈ 30.6 µM)
- MIC [11]: 8 µg/mL (≈ 30.6 µM)
- MIC [12]: 8 µg/mL (≈ 30.6 µM)
- MIC [13]: 8 µg/mL (≈ 30.6 µM)
- MIC [14]: 4 µg/mL (≈ 15.3 µM)
- MIC [15]: 4 µg/mL (≈ 15.3 µM)
